Entries after “also recorded” stand apart in the source; their conditions may differ. Structures can show the parent of a compound that is named as a salt.
test: Titration with standard copper solution in the presence of chrome azurol-S indicator (sequestering/chelating); details: titrated with standard copper solution
Excerpt: The compounds of this invention can also function as sequestering/chelating agents. For example, compounds were titrated with standard copper solution in the presence of chrome azurol-S indicator. The compound of Example 9 complexed about one mole of copper per mole of ligand. […] The compound of Example 3 was titrated and found to complex approximately three moles of copper per mole of ligand. The compound can function as either a threshold compound or a chelating agent.

| Structure (SMILES) | copper complexed per mole of ligand |
| --- | --- |
| O=P(O)(O)CN(CCN1CCN(CCN(CP(=O)(O)O)CP(=O)(O)O)CC1)CP(=O)(O)O [Example 3] | approximately three |
| O=C(O)CN(CCN1CCN(CCN(CC(=O)O)CC(=O)O)CC1)CC(=O)O [Example 9, tetrasodium salt of bis(aminoethyl)piperazine-tetraacetic acid] | about one |

test: Calcium Scale Inhibitor Test (NACE test method TM-03-74), calcium carbonate scale; details: 10 ppm based on active acid content; 24 Hrs.
Experimental: To show the utility of the above compounds as scale inhibitors, the following test was run.
Calcium Scale Inhibitor Test
The compounds were evaluated as scale inhibitors for calcium carbonate scale according to National Association of Corrosion Engineers (NACE) test method TM-03-74. Note the dramatic improvement of the phosphonic acids prepared from the bis(aminoethyl)piperazine and bis(aminopropyl)piperazine compounds of this invention when compared to aminoethylpiperazinetrimethylenephosphonic acid taught in the U.S. patent literature as a good scale inhibition compound.
*ppm based on active acid content

| Structure (SMILES) | Percent Inhibition at 24 Hrs. [%] |
| --- | --- |
| O=C(O)CN(CCN1CCN(CCN(CP(=O)(O)O)CP(=O)(O)O)CC1)CP(=O)(O)O [Example 5] | 96 |
| O=P(O)(O)CN(CCN1CCN(CCN(CP(=O)(O)O)CP(=O)(O)O)CC1)CP(=O)(O)O [Example 3] | 99 |
| O=P(O)(O)CN1CCN(CCN(CP(=O)(O)O)CP(=O)(O)O)CC1 [Example A, aminoethylpiperazine trimethylenephosphonic acid, reference compound] | 77 |
| O=P(O)(O)CNCCCN1CCN(CCCN(CP(=O)(O)O)CP(=O)(O)O)CC1 [Example 2] | 99 |
| O=P(O)(O)CN(CCCN1CCN(CCCN(CP(=O)(O)O)CP(=O)(O)O)CC1)CP(=O)(O)O [Example 1, completely phosphonomethylated bis(aminopropyl)piperazine] | 99 |
| O=P(O)(O)CN(CCN1CCN(CCN(CP(=O)(O)O)CP(=O)(O)O)CC1)CC(O)CS(=O)(=O)O (stereo not shown) [Example 6] | 85 |
| CC(O)CN(CCN1CCN(CCN(CP(=O)(O)O)CP(=O)(O)O)CC1)CP(=O)(O)O (stereo not shown) [Example 8] | 79 |
| O=P(O)(O)CNCCN1CCN(CCN(CP(=O)(O)O)CP(=O)(O)O)CC1 [Example 4] | 97 |
| O=P(O)(O)CN(CCCN1CCN(CCCN(CP(=O)(O)O)CP(=O)(O)O)CC1)CC(O)CS(=O)(=O)O (stereo not shown) [Example 7] | 92 |
| O=C(O)CN(CCN1CCN(CCN(CC(=O)O)CC(=O)O)CC1)CC(=O)O [Example 9, tetrasodium salt of bis(aminoethyl)piperazine-tetraacetic acid] | 55 |

same assay, conditions: 10 ppm based on active acid content; 48 Hrs.

| Structure (SMILES) | Percent Inhibition at 48 Hrs. [%] |
| --- | --- |
| O=C(O)CN(CCN1CCN(CCN(CP(=O)(O)O)CP(=O)(O)O)CC1)CP(=O)(O)O [Example 5] | 89 |
| O=P(O)(O)CN(CCN1CCN(CCN(CP(=O)(O)O)CP(=O)(O)O)CC1)CP(=O)(O)O [Example 3] | 91 |
| O=P(O)(O)CN1CCN(CCN(CP(=O)(O)O)CP(=O)(O)O)CC1 [Example A, aminoethylpiperazine trimethylenephosphonic acid, reference compound] | 65 |
| O=P(O)(O)CNCCCN1CCN(CCCN(CP(=O)(O)O)CP(=O)(O)O)CC1 [Example 2] | 93 |
| O=P(O)(O)CN(CCCN1CCN(CCCN(CP(=O)(O)O)CP(=O)(O)O)CC1)CP(=O)(O)O [Example 1, completely phosphonomethylated bis(aminopropyl)piperazine] | 93 |
| O=P(O)(O)CN(CCN1CCN(CCN(CP(=O)(O)O)CP(=O)(O)O)CC1)CC(O)CS(=O)(=O)O (stereo not shown) [Example 6] | 73 |
| CC(O)CN(CCN1CCN(CCN(CP(=O)(O)O)CP(=O)(O)O)CC1)CP(=O)(O)O (stereo not shown) [Example 8] | 77 |
| O=P(O)(O)CNCCN1CCN(CCN(CP(=O)(O)O)CP(=O)(O)O)CC1 [Example 4] | 87 |
| O=P(O)(O)CN(CCCN1CCN(CCCN(CP(=O)(O)O)CP(=O)(O)O)CC1)CC(O)CS(=O)(=O)O (stereo not shown) [Example 7] | 77 |
| O=C(O)CN(CCN1CCN(CCN(CC(=O)O)CC(=O)O)CC1)CC(=O)O [Example 9, tetrasodium salt of bis(aminoethyl)piperazine-tetraacetic acid] | 51 |

same assay, conditions: 10 ppm based on active acid content; 72 Hrs.

| Structure (SMILES) | Percent Inhibition at 72 Hrs. [%] |
| --- | --- |
| O=C(O)CN(CCN1CCN(CCN(CP(=O)(O)O)CP(=O)(O)O)CC1)CP(=O)(O)O [Example 5] | 83 |
| O=P(O)(O)CN(CCN1CCN(CCN(CP(=O)(O)O)CP(=O)(O)O)CC1)CP(=O)(O)O [Example 3] | 89 |
| O=P(O)(O)CN1CCN(CCN(CP(=O)(O)O)CP(=O)(O)O)CC1 [Example A, aminoethylpiperazine trimethylenephosphonic acid, reference compound] | 60 |
| O=P(O)(O)CNCCCN1CCN(CCCN(CP(=O)(O)O)CP(=O)(O)O)CC1 [Example 2] | 91 |
| O=P(O)(O)CN(CCCN1CCN(CCCN(CP(=O)(O)O)CP(=O)(O)O)CC1)CP(=O)(O)O [Example 1, completely phosphonomethylated bis(aminopropyl)piperazine] | 90 |
| O=P(O)(O)CN(CCN1CCN(CCN(CP(=O)(O)O)CP(=O)(O)O)CC1)CC(O)CS(=O)(=O)O (stereo not shown) [Example 6] | 75 |
| CC(O)CN(CCN1CCN(CCN(CP(=O)(O)O)CP(=O)(O)O)CC1)CP(=O)(O)O (stereo not shown) [Example 8] | 73 |
| O=P(O)(O)CNCCN1CCN(CCN(CP(=O)(O)O)CP(=O)(O)O)CC1 [Example 4] | 79 |
| O=P(O)(O)CN(CCCN1CCN(CCCN(CP(=O)(O)O)CP(=O)(O)O)CC1)CC(O)CS(=O)(=O)O (stereo not shown) [Example 7] | 79 |
| O=C(O)CN(CCN1CCN(CCN(CC(=O)O)CC(=O)O)CC1)CC(=O)O [Example 9, tetrasodium salt of bis(aminoethyl)piperazine-tetraacetic acid] | 50 |

same assay, conditions: threshold agent, less than stoichiometric amounts

| Structure (SMILES) | threshold activity (in words) |
| --- | --- |
| O=P(O)(O)CN1CCN(CCN(CP(=O)(O)O)CP(=O)(O)O)CC1 [Example A, aminoethylpiperazine trimethylenephosphonic acid, reference compound] | not have very good threshold activity |
| O=C(O)CN(CCN1CCN(CCN(CC(=O)O)CC(=O)O)CC1)CC(=O)O [Example 9, tetrasodium salt of bis(aminoethyl)piperazine-tetraacetic acid] | not a good threshold compound; also recorded: ineffective as a threshold compound |
